Laboratory results taken from article PMC4457528, “Identification of Novel Small Molecule Inhibitors of Oncogenic RET Kinase” (PLoS ONE, 2015).
Several values for one entry are separate records, joined by “and”; a condition that tells them apart may be missing. Identical values can stand only once. Like-named read-outs stand apart in the source and are kept apart here.

How the values were obtained:
Assay in all cases: KinomeScan kinase panel, single concentration 10 µM
Format in all cases: binding
KinomeScan kinase panel [1] = biological target: T1, KinomeScan kinase panel (Homo sapiens, UniProt Q9UF33); conditions: EPHA6, 10 µM; read-out: score (%)
T1 construct: purchased DiscoveRx (KinomeScan)
T1 sequence (Q9UF33 23-1036): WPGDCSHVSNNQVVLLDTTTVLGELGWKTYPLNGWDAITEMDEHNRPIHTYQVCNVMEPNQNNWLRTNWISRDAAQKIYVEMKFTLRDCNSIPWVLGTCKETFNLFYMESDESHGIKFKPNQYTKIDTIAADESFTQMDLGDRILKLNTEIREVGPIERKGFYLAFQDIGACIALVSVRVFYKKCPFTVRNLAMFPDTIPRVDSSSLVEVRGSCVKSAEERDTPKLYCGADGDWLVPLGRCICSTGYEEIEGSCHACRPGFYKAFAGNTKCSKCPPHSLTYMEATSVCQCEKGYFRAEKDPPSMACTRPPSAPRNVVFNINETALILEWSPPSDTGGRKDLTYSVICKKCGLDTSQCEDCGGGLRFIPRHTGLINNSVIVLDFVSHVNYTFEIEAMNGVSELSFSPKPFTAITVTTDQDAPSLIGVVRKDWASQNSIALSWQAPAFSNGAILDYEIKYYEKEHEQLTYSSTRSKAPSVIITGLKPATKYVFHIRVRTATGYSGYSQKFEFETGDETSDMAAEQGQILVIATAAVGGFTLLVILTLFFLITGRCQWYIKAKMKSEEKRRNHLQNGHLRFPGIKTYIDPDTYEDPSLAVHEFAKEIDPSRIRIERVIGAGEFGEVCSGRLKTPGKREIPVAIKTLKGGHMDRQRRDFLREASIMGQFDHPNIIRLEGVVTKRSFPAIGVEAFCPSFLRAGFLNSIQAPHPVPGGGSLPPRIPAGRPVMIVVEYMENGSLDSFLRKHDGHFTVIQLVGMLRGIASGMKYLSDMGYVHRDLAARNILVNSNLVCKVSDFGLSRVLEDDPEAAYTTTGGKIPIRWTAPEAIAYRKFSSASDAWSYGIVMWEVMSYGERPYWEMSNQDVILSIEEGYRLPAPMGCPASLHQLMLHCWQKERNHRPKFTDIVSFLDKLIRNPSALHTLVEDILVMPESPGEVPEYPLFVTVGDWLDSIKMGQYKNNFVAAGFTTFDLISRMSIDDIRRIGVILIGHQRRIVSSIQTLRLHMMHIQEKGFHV

KinomeScan kinase panel [2] = biological target: T2, KinomeScan kinase panel (Homo sapiens, UniProt Q14164); conditions: IKK-epsilon, 10 µM; read-out: score (%)
T2 construct: purchased DiscoveRx (KinomeScan)
T2 sequence (Q14164 1-716): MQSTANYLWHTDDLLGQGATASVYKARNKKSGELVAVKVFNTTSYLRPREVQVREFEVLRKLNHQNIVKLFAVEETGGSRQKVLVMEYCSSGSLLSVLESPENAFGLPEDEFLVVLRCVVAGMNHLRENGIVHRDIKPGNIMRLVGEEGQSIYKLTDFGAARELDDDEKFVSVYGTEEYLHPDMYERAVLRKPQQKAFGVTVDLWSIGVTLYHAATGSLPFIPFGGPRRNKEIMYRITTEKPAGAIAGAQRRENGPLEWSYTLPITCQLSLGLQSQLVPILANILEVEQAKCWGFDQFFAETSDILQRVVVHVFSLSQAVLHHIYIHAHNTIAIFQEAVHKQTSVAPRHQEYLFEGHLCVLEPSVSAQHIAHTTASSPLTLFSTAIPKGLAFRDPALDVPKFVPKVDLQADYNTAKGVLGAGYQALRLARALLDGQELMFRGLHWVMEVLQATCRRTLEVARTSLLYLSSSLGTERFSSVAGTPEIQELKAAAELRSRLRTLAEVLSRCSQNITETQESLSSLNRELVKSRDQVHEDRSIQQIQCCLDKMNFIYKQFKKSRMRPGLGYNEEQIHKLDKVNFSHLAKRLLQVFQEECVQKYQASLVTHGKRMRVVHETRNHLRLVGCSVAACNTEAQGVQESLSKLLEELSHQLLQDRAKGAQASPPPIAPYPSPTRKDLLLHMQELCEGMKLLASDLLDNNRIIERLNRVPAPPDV

KinomeScan kinase panel [3] = biological target: T3, KinomeScan kinase panel (Homo sapiens, UniProt O96017); conditions: CHEK2, 10 µM; read-out: score (%)
T3 construct: purchased DiscoveRx (KinomeScan)
T3 sequence (O96017 whole entry): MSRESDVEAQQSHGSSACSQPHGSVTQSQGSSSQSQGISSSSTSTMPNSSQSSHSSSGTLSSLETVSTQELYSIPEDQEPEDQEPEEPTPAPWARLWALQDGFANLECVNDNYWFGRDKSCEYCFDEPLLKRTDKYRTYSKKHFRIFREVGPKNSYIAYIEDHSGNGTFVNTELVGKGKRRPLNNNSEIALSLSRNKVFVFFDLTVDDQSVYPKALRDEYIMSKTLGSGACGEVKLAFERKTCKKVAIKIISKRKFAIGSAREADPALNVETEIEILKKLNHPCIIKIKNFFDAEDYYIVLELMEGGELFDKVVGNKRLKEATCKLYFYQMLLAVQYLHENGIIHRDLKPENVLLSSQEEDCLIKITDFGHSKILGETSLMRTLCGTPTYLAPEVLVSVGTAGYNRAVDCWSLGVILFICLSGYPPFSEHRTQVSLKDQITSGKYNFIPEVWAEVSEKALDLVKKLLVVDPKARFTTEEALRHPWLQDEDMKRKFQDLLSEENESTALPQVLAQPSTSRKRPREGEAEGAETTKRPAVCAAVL

KinomeScan kinase panel [4] = biological target: T4, KinomeScan kinase panel (Homo sapiens, UniProt P00519, E255K); conditions: 10 µM, read-out: score (%)
T4 construct: purchased DiscoveRx (KinomeScan)
T4 sequence (P00519 whole entry E255K): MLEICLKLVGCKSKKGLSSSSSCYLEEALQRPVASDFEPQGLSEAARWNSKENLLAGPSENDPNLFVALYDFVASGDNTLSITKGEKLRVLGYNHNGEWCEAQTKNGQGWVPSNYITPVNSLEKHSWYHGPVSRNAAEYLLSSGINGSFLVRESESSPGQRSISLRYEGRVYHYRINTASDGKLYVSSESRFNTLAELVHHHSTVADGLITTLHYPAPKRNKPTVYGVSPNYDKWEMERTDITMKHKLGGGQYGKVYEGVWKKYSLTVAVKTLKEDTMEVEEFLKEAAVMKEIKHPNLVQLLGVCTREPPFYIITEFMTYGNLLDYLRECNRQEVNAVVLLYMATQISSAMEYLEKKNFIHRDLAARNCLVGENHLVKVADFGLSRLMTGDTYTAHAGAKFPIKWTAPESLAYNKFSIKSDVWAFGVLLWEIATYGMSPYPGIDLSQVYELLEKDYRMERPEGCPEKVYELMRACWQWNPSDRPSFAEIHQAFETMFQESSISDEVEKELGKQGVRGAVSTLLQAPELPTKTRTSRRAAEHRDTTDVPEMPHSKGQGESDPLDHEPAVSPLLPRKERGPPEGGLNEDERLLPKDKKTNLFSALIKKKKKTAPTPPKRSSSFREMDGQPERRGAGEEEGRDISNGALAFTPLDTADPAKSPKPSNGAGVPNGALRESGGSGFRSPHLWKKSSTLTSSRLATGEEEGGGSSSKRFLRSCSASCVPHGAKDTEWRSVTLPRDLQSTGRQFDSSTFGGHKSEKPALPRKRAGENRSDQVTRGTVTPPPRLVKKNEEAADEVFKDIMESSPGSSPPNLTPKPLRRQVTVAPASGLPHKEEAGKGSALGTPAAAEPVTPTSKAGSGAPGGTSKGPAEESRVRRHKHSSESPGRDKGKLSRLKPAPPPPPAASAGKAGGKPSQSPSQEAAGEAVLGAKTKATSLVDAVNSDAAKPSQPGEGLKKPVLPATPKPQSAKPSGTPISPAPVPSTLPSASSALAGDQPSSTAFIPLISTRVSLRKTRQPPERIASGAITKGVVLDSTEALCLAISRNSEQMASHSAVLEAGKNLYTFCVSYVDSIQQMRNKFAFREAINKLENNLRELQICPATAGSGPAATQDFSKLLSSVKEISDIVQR

KinomeScan kinase panel [5] = system: KinomeScan kinase panel
KinomeScan kinase panel [6] = biological target: T5, KinomeScan kinase panel (Homo sapiens, UniProt Q9UKI8); conditions: read-out: score (%)
T5 construct: purchased DiscoveRx (KinomeScan)
T5 sequence (Q9UKI8 1-766): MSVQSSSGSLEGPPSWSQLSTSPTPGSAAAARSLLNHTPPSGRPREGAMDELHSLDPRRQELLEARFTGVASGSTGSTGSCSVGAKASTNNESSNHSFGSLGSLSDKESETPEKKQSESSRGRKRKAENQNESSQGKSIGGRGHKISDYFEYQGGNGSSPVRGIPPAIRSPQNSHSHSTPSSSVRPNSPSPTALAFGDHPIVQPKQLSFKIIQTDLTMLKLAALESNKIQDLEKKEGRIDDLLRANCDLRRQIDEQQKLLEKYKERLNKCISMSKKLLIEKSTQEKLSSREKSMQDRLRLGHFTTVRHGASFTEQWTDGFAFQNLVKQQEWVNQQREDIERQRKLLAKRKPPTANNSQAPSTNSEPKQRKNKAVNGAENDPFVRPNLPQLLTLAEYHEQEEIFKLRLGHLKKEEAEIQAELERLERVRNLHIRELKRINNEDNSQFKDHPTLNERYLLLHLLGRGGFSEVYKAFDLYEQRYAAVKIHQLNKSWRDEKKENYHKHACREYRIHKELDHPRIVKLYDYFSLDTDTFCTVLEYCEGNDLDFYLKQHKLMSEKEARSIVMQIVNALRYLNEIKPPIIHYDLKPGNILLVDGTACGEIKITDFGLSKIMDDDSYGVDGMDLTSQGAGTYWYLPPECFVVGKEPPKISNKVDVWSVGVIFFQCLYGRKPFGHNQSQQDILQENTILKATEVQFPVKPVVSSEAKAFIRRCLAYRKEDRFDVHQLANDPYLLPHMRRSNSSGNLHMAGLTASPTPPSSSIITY

[7] = EGFR(L747-E749del. A750P), 10 µM
[8] = EGFR(L747-S752del. P753S), 10 µM

SMILES | remaining binding at 10 µM (KinomeScan kinase panel [1]) | remaining binding at 10 µM (KinomeScan kinase panel [2]) | remaining binding at 10 µM (KinomeScan kinase panel [3]) | remaining binding at 10 µM (KinomeScan kinase panel [4]; ABL1(E255K)) | score (%) (KinomeScan kinase panel [5]) | score (%) (KinomeScan kinase panel [5]; FLT3(ITD), 10 µM) | score (%) (KinomeScan kinase panel [5]; kinase TAO1, 10 µM) | remaining binding at 10 µM (KinomeScan kinase panel [6]; kinase TLK1, 10 µM) | score (%) (KinomeScan kinase panel [5]; [7]) | score (%) (KinomeScan kinase panel [5]; [8]) | score (%) (KinomeScan kinase panel [5]; EGFR(L747-T751del.Sins), 10 µM) | remaining binding at 10 µM (KinomeScan kinase panel [6]; TLK1, 10 µM) | remaining binding at 10 µM (KinomeScan kinase panel [4]; ABL1(E255K)-phosphorylated)
CCN1CCN(Cc2ccc(NC(=O)c3ccc(C)c(NC(=O)c4cncc(-c5cccs5)c4)c3)cc2C(F)(F)F)CC1 [ALW-II-41-27] | 28% | > 30% | > 30% | 7.2% | 0.55% and 3% and 1.8% | 0.4% | 12% | > 30% |  |  |  |  | 
CCN1CCN(Cc2ccc(NC(=O)c3ccc(C)c(/C=C/c4cnc5[nH]ccc5c4Cl)c3)cc2C(F)(F)F)CC1 [HG-6-63-01, (E)-3-(2-(4-chloro-1H-pyrrolo[2,3-b]pyridin-5-yl)vinyl)-N-(4-((4-ethylpiperazin-1-yl)methyl)-3-(trifluoromethyl)phenyl)-4-methylbenzamide] | 6.7% | > 30% | > 30% | 1.3% |  | 0.1% |  |  | 0% | 0% | 0% | > 30% | 
CCN1CCN(Cc2ccc(NC(=O)c3ccc(C)c(C#Cc4cccnc4)c3)cc2C(F)(F)F)CC1 [XMD15-44] | 0% | > 30% | > 30% |  |  | 0.1% |  | 93% | 1.2% | 0.9% | 0.45% |  | 0.05%
